# Values quoted from earlier work as cited in patent publication US8431374B2, “Methods for the economical production of biofuel from biomass” (Gevo, Inc., priority 2007, dated 2013).
# What was measured:
# [1] = logarithm of the octanol:water partition coefficient
# Klyveromyces marxianus = conditions: in binary combination (Ballesteros 2004)
structure (smiles),measurement,setting,value
CC(C)CO [isobutanol],log P,[1],0.79
CCC(C)O (centres unmarked) [2-butanol],log P,[1],0.6
"COc1cc(C=O)ccc1O [Vanillin, vanillin]",reduction in both cell growth and fermentation,Klyveromyces marxianus,90%
CC(C)O [2-propanol],Solubility in water,"20° C., given in words",miscible
CCCCCCCCO [1-octanol],solubility limit,"octanol, two-phase system (Chen, Q. 1995)",< 1100 µg/mL
